According to patent US9428505B2, “Hydantoin derivative” (Chugai Seiyaku Kabushiki Kaisha, priority 2012, dated 2016):
pEC50: −log10 of the molar value.

Tests used:
[1] = Metabolic stability using human liver microsomes; format: in vitro ADME; conditions: pH 7.4; human liver microsomes 0.5 mg/mL, compound 1 μM, NADPH 1 mM, 37° C.; read-out: Clearance
Procedure: Examination of Metabolic Stability Using Human Liver Microsomes
In 0.1 M phosphate buffer (pH7.4), human liver microsomes were incubated with a compound or a comparative example in the coexistence of NADPH at 37° C. for a specified amount of time. The concentration of the parent compound at each reaction time was measured using LC/MS/MS, and inherent clearance (μL/min/mg protein) was calculated from the slope of the reaction time versus residual rate.
(§1) Compound concentration: 1 μM
Reaction time: 0, 5, 15, and 30 minutes

[2] = Metabolic stability using rat hepatocyte; format: in vitro ADME; conditions: for hepatocyte CLint at 1 μM: rat (SD, female) hepatocytes 1×10^6 cells/mL, compound 1 μM, 37° C., read-out: Clearance; for rat hepatocyte metabolic stability compared to Comparative Examples 1, 2, 3, 5, and 6: rat hepatocytes
Procedure: Examination of Metabolic Stability Using Rat Hepatocyte
Liver cells were prepared from the liver of rats (SD, female) by a collagenase perfusion method. A compound of the Examples or a Comparative Example was added, and this was incubated at 37° C. for a specified amount of time, followed by addition of a reaction-stopping solution. The concentration of the parent compound at each reaction time was measured using LC/MS/MS, and inherent clearance (μL/10^6 cells/min) was calculated from the slope of the reaction time versus residual rate.
Cell concentration: 1×10^6 cells/mL
as §1
Medium: Williams' medium E
Reaction-stopping solution: acetonitrile/2-propanol (4/6, v/v)

TPTX rat model = assay: Calcemic action in the TPTX rat model; format: in vivo; conditions: TPTX rats, oral 30 mg/kg; for change of serum Ca concentration from the Pre-value: up to 24 hours after administration
Procedure: Calcemic Action in the TPTX Rat Model
Four-week old female Crl:CD(SD) rats were obtained from Charles River Japan (Atsugi Breeding Center), and were acclimated to standard laboratory conditions of 20-26° C. and 35-75% humidity for one week. The rats were given tap water and were fed ad libitum with standard rodent chow (CE-2) (CLEA Japan, Inc.) containing 1.1% calcium, 1.0% phosphoric acid, and 250 IU/100 g of vitamin D3.
TPTX was performed on five-week old rats. Some of the individuals were subjected to sham operation (Sham). Individuals whose serum Ca concentration was less than 8 mg/dL on four days after the operation were selected for use as TPTX rats. On five days after the operation, the rats were assigned to eight TPTX groups and one Sham group (n=5, each group) based on their body weight and serum Ca concentration measured on four days after the operation. The solvent alone was orally administered to the Sham group and the TPTX-Vehicle group at a volume of 10 mL/kg. Each test article was orally administered individually to each TPTX test article group by dissolving it in a solvent at a dose of 30 mg/10 mL/kg. The solvent composition was 10% dimethylsulfoxide (Wako Pure Chemical Industries, Ltd.), 10% Cremophor EL (Sigma-Aldrich Japan LLC), 20% hydroxypropyl-β-cyclodextrin (Nihon Shokuhin Kako Co., Ltd.), glycine (Wako Pure Chemical Industries, Ltd.); and the pH was adjusted to 10. Immediately before administration of each sample, Pre-blood collection was performed, and blood collection was carried out at 2, 6, 10, and 24 hours after administration to measure the serum Ca concentration. Each blood collection was carried out from the jugular vein under isoflurane inhalation anesthesia.
Serum Ca measurement: Serum obtained by centrifugation from the collected blood was measured by using an automatic analyzer TBA-120FR (Toshiba Medical Systems Corporation).
For statistical analysis of the animal studies, data are shown as mean±standard error (SE). Statistical analysis were performed by unpaired test of the SAS Preclinical Package (Ver. 5.00.010720, SAS Institute Japan, Tokyo, Japan).

human PTH1R = human PTH1R (Homo sapiens (Human), UniProt Q03431); assay: In vitro cAMP signal activity via the human PTH1R (HKRK-B7 cells); format: cell-based; conditions: 100 nM human PTH(1-34) = 100%; for EC20: concentration giving 20% cAMP signaling activity; for pEC50: concentration giving 50% cAMP signaling activity
Chain of human PTH1R (Q03431 27-593): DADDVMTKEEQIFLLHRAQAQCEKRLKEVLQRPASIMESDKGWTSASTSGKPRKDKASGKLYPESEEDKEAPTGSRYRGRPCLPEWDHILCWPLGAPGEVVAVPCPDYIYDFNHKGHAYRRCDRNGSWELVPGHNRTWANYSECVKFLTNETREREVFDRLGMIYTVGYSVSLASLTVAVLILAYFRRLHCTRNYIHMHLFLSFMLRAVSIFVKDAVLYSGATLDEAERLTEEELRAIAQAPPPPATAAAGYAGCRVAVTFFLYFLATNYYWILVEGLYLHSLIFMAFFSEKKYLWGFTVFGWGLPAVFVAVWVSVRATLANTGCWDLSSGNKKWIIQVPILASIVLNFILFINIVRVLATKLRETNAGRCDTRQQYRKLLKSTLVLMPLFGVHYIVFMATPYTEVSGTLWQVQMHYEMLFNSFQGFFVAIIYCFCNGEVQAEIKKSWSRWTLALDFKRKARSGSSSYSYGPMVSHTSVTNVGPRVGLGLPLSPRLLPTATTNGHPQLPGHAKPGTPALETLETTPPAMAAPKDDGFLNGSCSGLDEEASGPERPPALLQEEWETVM
Procedure: Measurement of In Vitro cAMP Signal Activity of Compounds Via the Human PTH1R
Human PTH(1-34) and calcitonin were purchased from Peptide Institute, Inc. (Osaka, Japan), dissolved in 10 mM acetic acid to 1 mM and stored in a −80° C. freezer.
Cells were cultured in Dulbecco's modified Eagle's medium (DMEM) supplemented with 10% fetal bovine serum (Hyclone), 100 units/ml penicillin G and 100 μg/ml streptomycin sulfate (Invitrogen Corp) at 37° C. in a humidified atmosphere containing 5% CO2.
cAMP signal transduction analysis utilized LLC-PK1 cells not expressing the PTH1R, and HKRK-B7 cells, that is, LLC-PK1 cells overexpressing the human PTH1R at 9.5×10^5 receptors/cell (Takasu et al., J. Bone. Miner. Res. 14:11-20, 1999).
HKRK-B7 or LLC-PK1 cells were seeded into a 96-well plate at 1×10^5 cells/well and incubated overnight. On the following day, 50 μl of cAMP assay buffer (DMEM, 2 mM IBMX, 0.2 mg/ml bovine serum albumin, 35 mM Hepes-NaOH, pH 7.4) containing human PTH(1-34) or each compound was added and the plate was placed in a 37° C. incubator. The cells were incubated for 20 minutes. After removing the medium, the cells were washed with 100 μl of cAMP assay buffer once. The plate was placed on dry ice powder to freeze the cells and then removed from the dry ice. The cells were lysed with 40 μl of 50 mM HCl and frozen again on dry ice. The amount of intracellular cAMP produced was measured using a commercially available cAMP EIA kit (Biotrack cAMP EIA system, GE health care).
Analyses were performed using a variable gradient S-shaped dose-response curve equation.

| SMILES | microsomal CLint at 1 μM [1] [µL/min/mg] | hepatocyte CLint at 1 μM [2] [µL/min/1e6 cells] | achievement of therapeutic target range of serum Ca concentration of 7.6 to 8.8 mg/dL (TPTX rat model) | change of serum Ca concentration from the Pre-value (TPTX rat model) | EC20 (human PTH1R) [µM] | pEC50 (human PTH1R) | rat hepatocyte metabolic stability compared to Comparative Examples 1, 2, 3, 5, and 6 [2] |
| --- | --- | --- | --- | --- | --- | --- | --- |
| Cc1cc(N2C(=O)CNC2=O)cc(C)c1CCS(=O)(=O)N1CCC2(CC1)N=C(c1cccc(OC(F)(F)F)c1)NC2=O [Comparative Example 2, reference compound] | 61 | 5.9 | could not be achieved | smaller positive changes from the Pre-value | 3.1 | 4.89 |  |
| Cc1cc(N2C(=O)CNC2=O)cc(C)c1CCS(=O)(=O)N1CCC2(CC1)N=C(c1ccc(F)c(C(F)(F)F)c1)NC2=O [Comparative Example 3, reference compound] | 74 | 22 |  |  | 2.0 | 5.05 |  |
| CCC1CCC(C2=NC3(CCN(S(=O)(=O)CCc4ccc(N5CC(=O)NC5=O)cc4C)CC3)C(=O)N2)CC1 (centres unmarked) [Comparative Example 4, reference compound] | 74 |  |  |  | >505 |  |  |
| CC[C@H]1CC[C@H](C2=NC3(CCN(S(=O)(=O)CCc4ccc(N5CC(=O)NC5=O)cc4C)CC3)C(=O)N2)CC1 [Comparative Example 4, reference compound] |  |  |  |  |  | < 3.00 |  |
| CCC1CCC(C2=NC3(CCN(S(=O)(=O)CCc4ccc(N5C(=O)NC(=O)C5C)cc4C)CC3)C(=O)N2)CC1 (centres unmarked) [Comparative Example 5, reference compound] | 112 | 22 |  |  | 3.1 |  |  |
| CC[C@H]1CC[C@H](C2=NC3(CCN(S(=O)(=O)CCc4ccc(N5C(=O)NC(=O)C5C)cc4C)CC3)C(=O)N2)CC1 (some centres unmarked) [Comparative Example 5, reference compound] |  |  |  |  |  | 4.60 |  |
| CCC1CCC(C2=NC3(CCN(S(=O)(=O)CCc4ccc(N5C(=O)NC(=O)C5(C)C)cc4C)CC3)C(=O)N2)CC1 (centres unmarked) [Comparative Example 6, reference compound] | 154 | 22 |  |  | 3.6 |  |  |
| CC[C@H]1CC[C@H](C2=NC3(CCN(S(=O)(=O)CCc4ccc(N5C(=O)NC(=O)C5(C)C)cc4C)CC3)C(=O)N2)CC1 [Comparative Example 6, reference compound] |  |  |  |  |  | 4.49 |  |
| Cc1cc(N2C(=O)NC(=O)C2(C)C)cc(C)c1CCS(=O)(=O)N1CCC2(CC1)N=C(c1ccc(F)c(OC(F)(F)F)c1)NC2=O [Compound 1, 1-(4-(2-((2-(4-fluoro-3-(trifluoromethoxy)phenyl)-4-oxo-1,3,8-triazaspiro[4.5]deca-1-en-8-yl)sulfonyl)ethyl)-3,5-dimethylphenyl)-5,5-dimethylimidazolidine-2,4-dione] | 21 | 7.6 | could not be achieved | smaller positive changes from the Pre-value | 1.3 | 5.24 |  |
| Cc1cc(N2C(=O)NC(=O)C2(C)C)cc(C)c1CCS(=O)(=O)N1CCC2(CC1)N=C(c1cccc(Br)c1)NC2=O [Compound 2, 1-(4-(2-((2-(3-bromophenyl)-4-oxo-1,3,8-triazaspiro[4.5]deca-1-en-8-yl)sulfonyl)ethyl)-3,5-dimethylphenyl)-5,5-dimethylimidazolidine-2,4-dione] | 38 | 3 |  |  | 2.4 | 4.85 | increased |
| Cc1cc(N2C(=O)NC(=O)C2(C)C)cc(C)c1CCS(=O)(=O)N1CCC2(CC1)N=C(c1ccc(F)c(C(F)(F)F)c1)NC2=O [Compound 3, 1-(4-(2-((2-(4-fluoro-3-(trifluoromethyl)phenyl)-4-oxo-1,3,8-triazaspiro[4.5]deca-1-en-8-yl)sulfonyl)ethyl)-3,5-dimethylphenyl)-5,5-dimethylimidazolidine-2,4-dione] | 29 | 17 |  |  |  |  |  |
| Cc1cc(N2C(=O)NC(=O)C2(C)C)cc(C)c1CCS(=O)(=O)N1CCC2(CC1)N=C(c1ccc(OC(F)(F)F)c(F)c1)NC2=O [Compound 4, 1-(4-(2-((2-(3-fluoro-4-(trifluoromethoxy)phenyl)-4-oxo-1,3,8-triazaspiro[4.5]deca-1-en-8-yl)sulfonyl)ethyl)-3,5-dimethylphenyl)-5,5-dimethylimidazolidine-2,4-dione] | 27 | 2.2 |  |  | 1.6 | 5.13 | increased |
| Cc1cc(N2C(=O)NC(=O)C2(C)C)cc(C)c1CCS(=O)(=O)N1CCC2(CC1)N=C(c1ccc3c(c1)OC(F)(F)O3)NC2=O [Compound 5, 1-(4-(2-((2-(2,2-difluorobenzo[d][1,3]dioxol-5-yl)-4-oxo-1,3,8-triazaspiro[4.5]deca-1-en-8-yl)sulfonyl)ethyl)-3,5-dimethylphenyl)-5,5-dimethylimidazolidine-2,4-dione] | 37 | 1 |  |  | 1.7 | 5.09 | increased |
| Cc1cc(N2C(=O)NC(=O)C23CCN(C)CC3)cc(C)c1CCS(=O)(=O)N1CCC2(CC1)N=C(c1ccc(OC(F)(F)F)cc1)NC2=O [Compound 9, 1-(3,5-dimethyl-4-(2-((4-oxo-2-(4-(trifluoromethoxy)phenyl)-1,3,8-triazaspiro[4.5]deca-1-en-8-yl)sulfonyl)ethyl)phenyl)-8-methyl-1,3,8-triazaspiro[4.5]decane-2,4-dione] | 28 | 1.8 |  |  | 2.6 | 4.92 | increased |
| Cc1cc(N2C(=O)NC(=O)C23CCCC3)cc(C)c1CCS(=O)(=O)N1CCC2(CC1)N=C(c1cccc(C(F)(F)F)c1)NC2=O [Compound 12, 1-(3,5-dimethyl-4-(2-((4-oxo-2-(3-(trifluoromethyl)phenyl)-1,3,8-triazaspiro[4.5]deca-1-en-8-yl)sulfonyl)ethyl)phenyl)-1,3-diazaspiro[4.4]nonane-2,4-dione] | 63 |  |  |  |  |  |  |
